Legend:
Type in all cases: cell-based
human TASK-3 [1] = molecular target: T1, human TASK-3 (Homo sapiens (Human), UniProt Q9NPC2); experiment: Two-electrode voltage clamp analysis of human TASK-3 channels in Xenopus laevis oocytes; conditions: Xenopus laevis oocytes, two-electrode voltage clamp, room temperature; Table 1A
Description: (§1) B-1. In Vitro Electrophysiological Analysis of the Human TASK-1 and TASK-3 Channels Via Two-Electrode Voltage Clamp Technique in Xenopus laevis Oocytes
(§2) Xenopus laevis oocytes were selected as described elsewhere in an exemplary manner [Decher et al., FEBS Lett. 492, 84-89 (2001)]. Subsequently, the oocytes were injected with 0.5-5 ng of a cRNA solution coding for TASK-1 or TASK-3. For the electrophysiological analysis of the channel proteins expressed in the oocytes, the two-electrode voltage clamp technique [Stühmer, Methods Enzymol. 207, 319-339 (1992)] was used. The measurements were carried out as described [Decher et al., FEBS Lett. 492, 84-89 (2001)] at room temperature (21-22° C.) using a Turbo TEC 10CD amplifier (NPI), recorded at 2 kHz and filtered with 0.4 kHz. Substance administration was performed using a gravitation-driven perfusion system. Here, the oocyte is located in a measuring chamber and exposed to the solvent stream of 10 ml/min. The level in the measuring chamber is monitored and regulated by sucking off the solution using a peristaltic pump.

human TASK-3 [2] = molecular target: T1, human TASK-3; experiment: Inhibition of recombinant TASK-3 in stably transfected CHO cells (voltage-sensitive dye, FLIPR); conditions: depolarization induced by 40 mM potassium chloride, Table 2A
Description: (§3) B-2. Inhibition of Recombinant TASK-1 and TASK-3 In Vitro
(§4) The investigations on the inhibition of the recombinant TASK-1 and TASK-3 channels were carried out using stably transfected CHO cells. Here, the compounds according to the invention were tested with administration of 40 mM of potassium chloride in the presence of a voltage-sensitive dye using the method described in detail in the following references [Whiteaker et al., Validation of FLIPR membrane potential dye for high-throughput screening of potassium channel modulators, J. Biomol. Screen. 6 (5), 305-312 (2001); Molecular Devices FLIPR Application Note: Measuring membrane potential using the FLIPR® membrane potential assay kit on Fluorometric Imaging Plate Reader (FLIPR®) systems, http://www.moleculardevices.com/reagents-supplies/assay-kits/ion-channels/flipr-membrane-potential-assay-kits]. The activity of the test substances was determined as their ability to inhibit a depolarization induced in the recombinant cells by 40 mM potassium chloride. The concentration which can block half of this depolarization is referred to as IC50.

human TASK-1 [3] = molecular target: T2, human TASK-1 (Homo sapiens (Human), UniProt O14649); experiment: Inhibition of recombinant TASK-1 in stably transfected CHO cells (voltage-sensitive dye, FLIPR); conditions: depolarization induced by 40 mM potassium chloride, Table 2A
T2 sequence (O14649 whole entry): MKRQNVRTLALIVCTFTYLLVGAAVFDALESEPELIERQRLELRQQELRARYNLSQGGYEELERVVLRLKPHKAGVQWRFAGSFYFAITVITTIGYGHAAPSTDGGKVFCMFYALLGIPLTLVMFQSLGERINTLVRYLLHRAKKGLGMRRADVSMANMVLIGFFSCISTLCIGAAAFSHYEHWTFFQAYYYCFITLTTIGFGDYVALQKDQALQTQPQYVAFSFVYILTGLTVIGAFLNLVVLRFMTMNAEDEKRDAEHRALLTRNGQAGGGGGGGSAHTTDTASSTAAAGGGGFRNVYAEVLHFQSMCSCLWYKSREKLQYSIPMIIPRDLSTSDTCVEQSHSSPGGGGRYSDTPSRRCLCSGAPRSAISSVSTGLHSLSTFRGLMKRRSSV
Description: as §3, §4

human TASK-1 [4] = molecular target: T2, human TASK-1; experiment: Two-electrode voltage clamp analysis of human TASK-1 channels in Xenopus laevis oocytes; conditions: Xenopus laevis oocytes, two-electrode voltage clamp, room temperature; Table 1A
Description: as §1, §2

T1 sequence (Q9NPC2 whole entry): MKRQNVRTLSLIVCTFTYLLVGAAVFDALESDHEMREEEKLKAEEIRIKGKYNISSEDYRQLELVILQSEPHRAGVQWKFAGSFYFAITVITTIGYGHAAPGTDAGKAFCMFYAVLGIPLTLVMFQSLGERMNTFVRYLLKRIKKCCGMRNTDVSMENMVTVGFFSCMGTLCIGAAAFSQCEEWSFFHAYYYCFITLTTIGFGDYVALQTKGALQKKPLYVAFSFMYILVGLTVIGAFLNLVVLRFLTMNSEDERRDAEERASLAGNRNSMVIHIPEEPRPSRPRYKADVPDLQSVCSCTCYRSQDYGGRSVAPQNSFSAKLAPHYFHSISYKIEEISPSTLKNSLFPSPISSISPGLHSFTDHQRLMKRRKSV

CC(C)Oc1cccc(C(=O)N2CCN(Cc3c(-c4ccc(Cl)cc4)nc4ccccn34)CC2)n1 [Example 39]
IC50 (human TASK-3 [1]): 6.2 ± 1.1 nM
IC50 (human TASK-3 [2]): 56 nM
IC50 (human TASK-1 [3]): 440 nM
IC50 (human TASK-1 [4]): 13.4 ± 0.9 nM

Source: US10759794B2, “2-phenyl-3-(piperazinomethyl)imidazo[1,2-A]pyridine derivatives as blockers of task-1 and task-2 channels, for the treatment of sleep-related breathing disorders” (BAYER PHARMA AKTIENGESELLSCHAFT, priority 2015, dated 2020)
